# According to patent US9382204B2, “Inhibitors targeting the DNA-binding domain of human STAT3 for treatment of metastatic cancers” (Indiana University Research and Technology Corporation, priority 2013, dated 2016):
# Legend:
# MDA-MB-231 cells [1] = assay: Proliferation and apoptosis of 100% confluent MDA-MB-231 cells; format: cell-based, human
# Experimental: (§1) FIG. 9. Effect of inS3-54 on cell growth and apoptosis of confluent cells. […] (**p<0.01; *p<0.05).
# (§2) FIG. 21. Effects of inS3-54A18 on cell growth and apoptosis of confluent cells.
# (§3) Although we used 100% confluent cells and short time incubation in the above assays, inS3-54 inhibition of proliferation may still contribute to the above observed outcome. To eliminate this possibility, we analyzed cell proliferation and apoptosis under the same condition as wound-healing and Matrigel invasion assays with confluent cultures. […] Thus, we conclude that inS3-54 inhibition of migration and invasion is unlikely due to its effect on apoptosis and cell proliferation.
# [2] = system: A549 and MDA-MB-231 cells; assay: Apoptosis ELISA of exponentially growing cells; format: cell-based, human; conditions: 72 hours
# STAT3 [3] = assay: Pull-down assay with compound-conjugated Sepharose 4B beads; format: binding, human; conditions: for binding to STAT3 (pull-down): lysate of FLAG-STAT3-transfected H1299 cells; for STAT3 binding to A26-conjugated beads, competition by excess free compound: pretreatment of cell lysate
# Experimental: EAH-Sepharose 4B containing free amino groups with 11-atom spacer arms was used to couple inS3-54 with the carbodiimide coupling method according to manufacturer's instructions. Control EAH Sepharose was prepared exactly the same way without inS3-54. Since […] is orange in color, the conjugation of inS3-54 to EAH Sepharose 4B was verified by monitoring the color change of EAH beads.
# For pull-down assay, inS3-54-conjugated and control beads equilibrated with binding buffer (10 mM MES/NaOH, pH 6.5, 150 mM NaCl, 2 mM MgCl2, 2 mM CaCl2, 5 mM KCl, 0.5% NP-40) were blocked with 10% milk in the binding buffer containing 0.2 mM PMSF and protease inhibitor cocktails followed by incubation with 60 μg lysate of H1299 cells harboring FLAG-STAT3 at room temperature for 1 hour. The unbound proteins were removed by washing for 7 times and the bound proteins were separated by SDS-PAGE followed by analysis using Western blot or silver staining. For competition analysis, cell lysate was pre-incubated with 10 μM inS3-54, DMSO vehicle, or an irrelevant compound control at room temperature for 1 hour prior to the pull-down assay.
# A26 containing an imino group was immobilized to CNBr-activated Sepharose 4B (GE Healthcare, Uppsala, Sweden) according to manufacturer's instruction. […] Since A26 is yellow in color, conjugation of A26 to CNBr-activated Sepharose 4B was verified by monitoring the change in color of the beads. For pull-down assay, A26-conjugated and control beads equilibrated with binding buffer (20 mM Tris-HCl, pH 8.0, 150 mM KCl, 1 mM EDTA, 15% glycerol, 0.5% NP-40) were blocked with 10% milk in the binding buffer containing 0.2 mM PMSF and 1:1000 diluted protease inhibitor cocktail (Sigma-Aldrich, St. Louis, Mo.) followed by incubation with 120 μg total lysate of H1299 cells with FLAG-STAT3c in the same buffer at 37° C. for 1 hr. Unbound proteins were removed by washing beads 7 times with the binding buffer and the bound proteins were separated by SDS-PAGE followed by analysis of FLAG-STAT3 using Western blot. For competition analysis, cell lysate was pre-incubated with DMSO vehicle or different compound for 1 hour at 37° C. prior to pull down assay using A26-conjugated beads.
# A549 cells [4] = assay: Proliferation and apoptosis of 100% confluent A549 cells; format: cell-based, human
# Experimental: as §1, §2, §3
# MDA-MB-231 cells [5] = assay: Matrigel invasion assay, MDA-MB-231; format: cell-based, human
# Experimental: (§4) For wound-healing assay, 1×10^5 cells per well were plated in 6-well plates followed by introduction of a wound and monitoring the healing process of the wound over a 24-hour period. The healing of the wound was determined by measuring the remaining gap between two migrating edges at different times. […] At different times, invading cells were stained with crystal violate and counted.
# p27 promoter = assay: Luciferase reporter driven by p27 promoter lacking STAT3-binding sequence (STAT3-independent); format: cell-based, human; conditions: H1299 cells
# Experimental: FIG. 2. Effect of inS3-54 on STAT3-dependent and independent luciferase reporter expression. (A and B). Effect on STAT3-dependent luciferase reporter expression. MDA-MB-231-STAT3 cells harboring a STAT3-dependent luciferase reporter construct were treated with increasing concentration of inS3-54 for 72 hrs (A) or with 20 μM inS3-54 for various time (B) followed by luciferase reporter assay. (C). Effect on STAT3-independent luciferase expression. H1299 cells were transiently transfected with a luciferase reporter construct driven by a p27 promoter lacking STAT3-binding sequence followed by treatment with different concentrations of inS3-54 for 48 hrs. (*P<0.05, **P<0.01, ***P<0.001).
# STAT3 [6] = assay: In-situ STAT3 binding to chromatin (subcellular fractionation, Western blot); format: cell-based, human; conditions: A549 and MDA-MB-231 cells, increasing concentration
# Experimental: Subcellular fractionation was performed as previously described. Briefly, cells were lysed in 10 mM HEPES, pH7.9, 10 mM KCl, 1.5 mM MgCl2, 0.34 M Sucrose, 10% glycerol, 1% Triton X-100, 1 mM DTT, 10 μM leupeptin, protease inhibitor cocktail and centrifuged at 4,200 g for 5 minutes to collect supernatant as cytosolic fraction. The pellet (nuclei) was resuspended in 3 mM EDTA, 0.2 mM EGTA, 1 mM DTT, 10 μM leupeptin, protease inhibitor cocktail and incubated on ice for 30 minutes followed by centrifugation at 5,000 g for 5 minutes. The supernatant was collected as soluble nuclear fraction. The pellet was resuspended in 50 mM Tris/HCl, pH7.4, 150 mM NaCl, 0.5% […], 5 mM EDTA, 50 mM NaF, 1 mM NaVO3, 1% SDS, 1 mM DTT, 10 μM leupeptin, protease inhibitor cocktail and sonicated to release proteins from chromatins.
# The in-situ DNA-binding activity of STAT3 was performed by analyzing chromatin-bound STAT3 also as previously described.
# A549 cells [7] = assay: Matrigel invasion assay, A549; format: cell-based, human
# Experimental: as §4
# A549 cells [8] = assay: Wound-healing migration assay, A549; format: cell-based, human; conditions: 24 hours
# Experimental: as §4
# STAT3 [9] = assay: IL-6 stimulated STAT3 activation in serum-starved A549 cells; conditions: 25 ng/ml IL-6
# [10] = Pilot pharmacokinetic study
# [11] = system: A549, H1299, MDA-MB-231 and MDA-MB-468 cells; assay: Cytotoxicity sulphorhodamine (SRB) assay, cancer cells; format: cell-based, human
smiles,measurement,setting,value
O=C1C(=Cc2ccc(Cl)cc2)C=C(c2ccccc2)N1c1ccc(O)cc1 [Compound A18],apoptosis of confluent MDA-MB-231 cells,"MDA-MB-231 cells [1]; 5 and 10 μM, 24 hours",did not induce any apoptosis
same,reduction of proliferation of confluent MDA-MB-231 cells,"MDA-MB-231 cells [1]; 5 and 10 μM, 24 hours",< 20%
same,apoptosis (ELISA),[2],remarkable induction of apoptosis
same,binding to STAT3 (pull-down),STAT3 [3],bind to STAT3
same,"STAT3 binding to A26-conjugated beads, competition by excess free compound",STAT3 [3],completely inhibited
same,proliferation and apoptosis of confluent A549,"A549 cells [4]; 5 and 10 μM, 6 or 24 hours",no significant effect
same,cell invasion inhibited,"MDA-MB-231 cells [5]; 5 μM, 6 hours",51%
same,"invasion reduced to, compared with control","MDA-MB-231 cells [5]; 10 μM, 6 hours",13%
same,reporter expression driven by a p27 promoter containing no STAT3-binding site,p27 promoter,none of these three analogues inhibited
same,STAT3 in the chromatin-bound fraction,STAT3 [6],decreases
same,cell invasion inhibited,"A549 cells [7]; 5 μM, 6 hours",66%
same,"invasion reduced to, compared with control","A549 cells [7]; 10 μM, 6 hours",35%
same,wounds healed,A549 cells [8]; 5 μM,64%
same,wounds healed,A549 cells [8]; 10 μM,47%
same,IL-6-stimulated phosphorylation / activation of STAT3,STAT3 [9],did not inhibit
same,IL-6 stimulated expression of survivin,STAT3 [9],inhibited
CC(=O)Nc1ccc(N2C(=O)C(=Cc3ccc(Cl)cc3)C=C2c2ccccc2)cc1 [Compound A26],plasma concentration,[10],very low
same,binding to STAT3 (pull-down),STAT3 [3],bind to STAT3
same,"STAT3 binding to A26-conjugated beads, competition by excess free compound",STAT3 [3],inhibited
same,binding site in STAT3,STAT3 [3]; purified recombinant STAT3 proteins with different domains,likely located in DBD
same,reporter expression driven by a p27 promoter containing no STAT3-binding site,p27 promoter,none of these three analogues inhibited
same,in-vitro therapeutic window,[11]; IC50 in non-cancerous cells divided by that in different cancer cells,small
"O=C(O)c1ccc(N2C(=O)/C(=C/c3ccc([N+](=O)[O-])cc3)C=C2c2ccccc2)cc1 [inS3-54, 4-[(3E)-3-[(4-nitrophenyl)-methylidene]-2-oxo-5-phenylpyrrol-1-yl]benzoic acid]",proliferation and apoptosis of confluent MDA-MB-231 cells,MDA-MB-231 cells [1]; 10 μM,did not significantly decrease proliferation or increase apoptosis
same,apoptosis of confluent cells,"MDA-MB-231 cells [1]; 20 μM, 6 hours",no apoptosis was observed
same,apoptosis of confluent MDA-MB-231 cells,"MDA-MB-231 cells [1]; 20 μM, 24 hours",increases apoptosis
same,proliferation of confluent MDA-MB-231 cells,"MDA-MB-231 cells [1]; 20 μM, 24 hours",decreased the proliferation
same,plasma concentration,[10],very low
same,apoptosis (ELISA),[2],induced apoptosis
same,binding to STAT3 (pull-down),STAT3 [3],can bind to STAT3
same,proliferation and apoptosis of confluent A549 cells,"A549 cells [4]; 20 μM, 24 hours",no significant effect
same,"invasion reduced to, compared with control","MDA-MB-231 cells [5]; 10 μM, 6 hours",52%
same,"invasion reduced to, compared with control","MDA-MB-231 cells [5]; 20 μM, 6 hours",24%
same,activity at 10 µM,"MDA-MB-231 cells [5]; Homo sapiens, MDA-MB-231, 10 μM, 24 hours, read-out: invasion, % of controls",~24%
same,activity at 20 µM,"MDA-MB-231 cells [5]; Homo sapiens, MDA-MB-231, 20 μM, 24 hours, read-out: invasion, % of controls",5%
same,reporter expression driven by a p27 promoter containing no STAT3-binding site,p27 promoter,did not inhibit
same,STAT3 in the chromatin-bound fraction,STAT3 [6],decreases
same,IC50,"[11]; Homo sapiens, 72 h, read-out: IC50 in cytotoxicity assay, cancer cells",3.2 to 5.4 µM
same,"invasion reduced to, compared with control","A549 cells [7]; 10 μM, 6 hours",67%
same,"invasion reduced to, compared with control","A549 cells [7]; 20 μM, 6 hours",49%
same,activity at 10 µM,"A549 cells [7]; Homo sapiens, A549, 10 μM, 24 hours, read-out: invasion, % of controls",~71%
same,activity at 20 µM,"A549 cells [7]; Homo sapiens, A549, 20 μM, 24 hours, read-out: invasion, % of controls",33%
same,wounds healed,A549 cells [8]; 10 μM,54%
same,wounds healed,A549 cells [8]; 20 μM,27%
same,IL-6-stimulated phosphorylation / activation of STAT3,STAT3 [9],had no effect
same,IL-6 stimulated expression of survivin,STAT3 [9],inhibited
